Experimental data published in patent US20100234417A1, “THYROTROPIN RELEASING HORMONE RECEPTOR-OREXIN RECEPTOR HETERO-DIMERS/-OLIGOMERS” (DIMERIX BIOSCIENCE PTY LTD., priority 2006, published 2010).

Tests used:
[1] = test system: thyrotropin releasing hormone receptor/orexin receptor hetero-dimer/-oligomer (TRHR with OxR1); assay: eBRET: TRHR/Rluc + barr2/Venus + OxR1 as IG3 in HEK293 cells; format: cell-based; conditions: OxR1, FIG. 6
Protocol: (§1) Briefly, referring to FIGS. 1 to 3, the IGs are provided in the form of the two receptors (TRHR and OxR). One of the two is attached to an RC (IG1-RC1, IG3). A second IG (IG2-RC2) is derived from a molecule that interacts with the receptors upon ligand binding (e.g. beta-arrestin, or a mutant thereof).
(§2) Cells were seeded in 6-well plates at a density of approximately 630,000 cells/well (HEK293FT) or approximately 150,000 cells/well (COS-7) and maintained at 37° C., 5% CO2 in Complete Media (DMEM containing 0.3 mg/ml glutamine, 100 IU/ml penicillin and 100 μg/ml streptomycin (Gibco)) supplemented with 10% fetal calf serum (FCS; Gibco). Transient transfections were carried out 24 h after seeding using GeneJuice (Novagen) or Metafectene (Biontex) according to manufacturer instructions. 24 h post-transfection, cells were washed with PBS, detached using 0.05% trypsin/0.53 mM EDTA, resuspended in HEPES-buffered phenol red free Complete Media containing 5% FCS and added to a poly-L-lysine-coated white microplate (Nunc). 48 h post-transfection, eBRET assays were carried out following pre-incubation of cells with EnduRen™ (Promega) at a final concentration of 30-40 μM, at 37° C., 5% CO2 for 2 h. For original BRET studies, the HEPES-buffered phenol red free Complete Media was replaced with PBS and coelenterazine h (Molecular Probes) added to a final concentration of 5 μM immediately prior to commencing the assay. […] Filtered light emissions were sequentially measured for 3-5 s in each of the ‘donor wavelength window’ (400-475 nm) and ‘acceptor wavelength window’ (>500 nm for EGFP or 520-540 nm for EYFP, Topaz (TYFP) or Venus). The BRET signal observed between interacting proteins is normalized by subtracting the background BRET ratio. […] In this case, data are shown as ‘fluorescence/luminescence’ being the ratio of light emission through the ‘acceptor wavelength window’ over the 400-475 nm emission for a particular cell sample. Unless otherwise stated, BRET signals were measured in 96-well microplates. […]

[2] = test system: thyrotropin releasing hormone receptor/orexin receptor hetero-dimer/-oligomer (TRHR with OxR2); assay: eBRET/BRET detection of TRHR-OxR2 association: TRHR/Rluc + tagged beta-arrestin + OxR2 as IG3 in HEK293 cells; format: cell-based; conditions: OxR2, FIG. 6
Protocol: as §1
as §2, with “In the following examples, the first calculation will be used, unless the signal is described as the ‘ligand-induced BRET ratio’. […] In” for “In”
Cells not pretreated with antagonist were pretreated with PBS instead for the same amount of time. […]

[3] = test system: animals studied (narcolepsy); conditions: cited from earlier work
[4] = 10^−6M SB-334867-A approx. 40 minutes before 10^−6M OxA
[5] = 10^−6M SB-334867-A approx. 40 minutes before 10^−6M TRH and OxA
[6] = dose- and time-dependent manner

Row | SMILES | effect of antagonist pretreatment on OxA-induced eBRET signal [1, 4] | effect of antagonist pretreatment on TRH + OxA-induced eBRET signal [1, 5] | effect of antagonist pretreatment on OxA-induced eBRET signal [2, 4] | effect of antagonist pretreatment on TRH + OxA-induced eBRET signal [2, 5] | rapid eye movement (REM) sleep [3, 6] | slow wave sleep (SWS) [3, 6] | cataplexy ([3]; in most of the animals studied)
1 | Cc1nc2ccc(NC(=O)Nc3ccnc4cccnc34)cc2o1.Cl [SB-334867-A, 1-(2-methylbenzoxazol-6-yl)-3-[1,5]naphthyridin-4-yl urea hydrochloride] | reduced | reduced | not affected | did not differ | – | – | –
2 | CN1C(=O)C[C@@H](C(=O)N[C@@H](Cc2c[nH]cn2)C(=O)N2CCC[C@H]2C(N)=O)NC1=O.O.O.O.O [TA-0910] | – | – | – | – | significantly reduced | significantly reduced | completely suppressed
